Results: patent US20230295162A1 (EÖTVÖS LORÁND TUDOMÁNYEGYETEM, priority 2020, published 2023)

Tests used:
[1] = tested on: PANC-1 (human pancreatic carcinoma) cells; experiment: Impedance-based viability assay (xCELLigence SP), long treatment; type: cell-based; conditions: 72 h, read-out: cytotoxicity expressed in IC50, PANC-1
From the text: (Gibco®/Invitrogen Corporation, New York, NY, USA).
Data obtained from each experiment represent mathematical averages.

[2] = tested on: EBC-1 lung cancer cell line; experiment: High-throughput screening, CellTiter-Glo cell viability assay at 100 nM; type: cell-based, human; conditions: Homo sapiens, EBC-1, HTS, compounds at 100 nM, 72 h, read-out: cytotoxicity expressed in IC50, EBC-1 (results of High throughput screening)
[3] = tested on: H2228 lung cancer cell line; experiment: as above; type: cell-based, human; conditions: Homo sapiens, NCI-H2228, HTS, compounds at 100 nM, 72 h, read-out: cytotoxicity expressed in IC50, H2228 (results of High throughput screening)
[4] = tested on: Capan-1 (pancreas, adenocarcinoma) cells; experiment: Cell viability assay, CellTiter-Glo (Example 21); type: cell-based, human; conditions: 72 h treatment
Procedure, shortened: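 Capan-1 cells were seeded at 1000 cells/well in flat-bottomed white 96 well plates (BRANDplates®), with density optimized for cell size and growth rate. Following compound treatment, viability was measured with the CellTiter-Glo® luminescent assay (Promega) per the manufacturer's instructions, reading luminescence on a BioTek Synergy 2 Multi-Mode Reader.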

[5] = tested on: DU 145 (prostate, carcinoma) cells; experiment: Cell viability assay, CellTiter-Glo (Example 21); type: cell-based, human; conditions: 72 h
Procedure, shortened: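 DU 145 cancer cell viability was assessed with the CellTiter-Glo® luminescent assay (Promega, Madison, WI, USA), following the manufacturer's instructions. Cells were seeded at 1000 cells/well in flat-bottomed white 96 well plates, and after treatment luminescence was read on a BioTek Synergy 2 Multi-Mode Reader.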

[6] = tested on: Detroit 562 (pharynx, carcinoma) cells; experiment: Cell viability assay, CellTiter-Glo (Example 21); type: cell-based, human; conditions: 72 h treatment
Procedure, shortened: (§1)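 Seeding density per line: Panc-1 750, FaDu 1000, Detroit 562 and MDA-MB-453 1500 cells/well. Viability after treatment read by CellTiter-Glo luminescence; dose-response curves fitted by four-parameter variable-slope non-linear regression.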

[7] = tested on: EBC-1 (lung, squamous cell carcinoma) cells; experiment: Cell viability assay, CellTiter-Glo (Example 21); type: cell-based, human; conditions: 72 h treatment
Procedure, shortened: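 EBC-1 lung squamous cell carcinoma cells were seeded at 1000 cells/well in flat-bottomed white 96 well plates. After compound treatment, viability was measured with the CellTiter-Glo luminescent assay following the manufacturer's instructions, and luminescence was read on a BioTek Synergy 2 Multi-Mode microplate reader.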

[8] = tested on: FaDu (pharynx, squamous cell carcinoma) cells; experiment: Cell viability assay, CellTiter-Glo (Example 21); type: cell-based, human; conditions: 72 h treatment
Procedure, shortened: as §1

[9] = tested on: LNCaP (prostate, carcinoma) cells; experiment: Cell viability assay, CellTiter-Glo (Example 21); type: cell-based, human; conditions: 72 h
Procedure, shortened: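 LNCaP prostate carcinoma cell viability was assessed with the CellTiter-Glo® luminescent assay (Promega), following the manufacturer's instructions. Cells were seeded at 1500 cells/well into flat-bottomed white 96 well plates, treated, and then luminescence was read on a BioTek Synergy 2 Multi-Mode Reader. Dose-response curves were fitted in GraphPad Prism 8.4.2 by four-parameter variable-slope non-linear regression.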

[10] = tested on: MDA-MB-231 (breast, adenocarcinoma) cells; experiment: Cell viability assay, CellTiter-Glo (Example 21); type: cell-based, human; conditions: 72 h treatment
Procedure, shortened: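 MDA-MB-231 breast adenocarcinoma cells were seeded at 1500 cells/well in flat-bottomed white 96 well plates (BRANDplates®, cat. no.: 781965). Following compound exposure, viability was assessed with the CellTiter-Glo® luminescent assay (Promega) following the manufacturer's protocol, and luminescence was read on a BioTek Synergy 2 Multi-Mode Reader.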

[11] = tested on: MDA-MB-453 (breast, carcinoma) cells; experiment: Cell viability assay, CellTiter-Glo (Example 21); type: cell-based, human; conditions: 72 h treatment
Procedure, shortened: as §1

[12] = tested on: MIA PaCa-2 (pancreas, carcinoma) cells; experiment: Cell viability assay, CellTiter-Glo (Example 21); type: cell-based, human; conditions: 72 h treatment
Procedure, shortened: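 MIA PaCa-2 pancreatic carcinoma cells were seeded at 1000 cells/well in flat-bottomed white 96 well plates (BRANDplates®, cat. no.: 781965) and treated with compound. Viability was then determined with the CellTiter-Glo® luminescent cell viability assay (Promega) following the manufacturer's instructions, with luminescence read on a BioTek Synergy 2 Multi-Mode Reader.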

[13] = tested on: PC-3 (prostate, adenocarcinoma) cells; experiment: Cell viability assay, CellTiter-Glo (Example 21); type: cell-based, human; conditions: 72 h treatment
Procedure, shortened: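 PC-3 prostate adenocarcinoma cells were seeded at 1000 cells/well in flat-bottomed white 96 well plates and treated with compounds. Viability was then determined with the CellTiter-Glo® luminescent assay (Promega) following the manufacturer's instructions, with luminescence read on a BioTek Synergy 2 Multi-Mode Reader.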

[14] = tested on: Panc-1 (pancreas, carcinoma) cells; experiment: Cell viability assay, CellTiter-Glo (Example 21); type: cell-based, human; conditions: 72 h treatment
Procedure, shortened: as §1

[15] = tested on: SCC-25 (tongue, squamous cell carcinoma) cells; experiment: Cell viability assay, CellTiter-Glo (Example 21); type: cell-based, human; conditions: 72 h treatment
Procedure, shortened: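 SCC-25 tongue squamous cell carcinoma cells were seeded at 1000 cells/well in flat-bottomed white 96 well plates, treated with compound, and viability was then determined with the CellTiter-Glo luminescent assay (Promega) following the manufacturer's instructions. Luminescence was read on a BioTek Synergy 2 Multi-Mode Reader.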

Work on O=C1C2=C(CCN(Cc3ccccc3)C2)N2CCN=C2N1Cc1ccc(C(F)(F)F)cc1 [I/1, reference compound] yielded an IC50 [1] of 0.048 µM, an IC50 [2] of under 0.1 µM and an IC50 [3] of over 0.1 µM. For the same compound, the “Capan-1 (pancreas, adenocarcinoma) cell viability (% of control)” value ([4]; 3.7 nM) was 100.3 ± 4.0 % of control, the “Capan-1 (pancreas, adenocarcinoma) cell viability (% of control)” value ([4]; 11.1 nM) was 99.2 ± 3.8 % of control and the “Capan-1 (pancreas, adenocarcinoma) cell viability (% of control)” value ([4]; 100 nM) was 88.1 ± 4.2 % of control. For the same compound, the “Capan-1 (pancreas, adenocarcinoma) cell viability (% of control)” value ([4]; 300 nM) was 36.8 ± 3.4 % of control, the “DU 145 cell viability” value ([5]; 3.7 nM) was 99.0 ± 4.6 % of control and the “DU 145 cell viability” value ([5]; 11.1 nM) was 101.3 ± 4.3 % of control. For the same compound, the “DU 145 cell viability” value ([5]; 100 nM) was 17.5 ± 4.2 % of control, the “DU 145 cell viability” value ([5]; 300 nM) was 8.1 ± 2.2 % of control and the “Detroit 562 (pharynx, carcinoma) cell viability (% of control)” value ([6]; 3.7 nM) was 104.1 ± 4.8 % of control. The “Detroit 562 (pharynx, carcinoma) cell viability (% of control)” value ([6]; 11.1 nM) was 104.0 ± 17.2 % of control, the “Detroit 562 (pharynx, carcinoma) cell viability (% of control)” value ([6]; 100 nM) was 35.8 ± 14.4 % of control and the “Detroit 562 (pharynx, carcinoma) cell viability (% of control)” value ([6]; 300 nM) was 32.0 ± 5.0 % of control. For the same compound, the “EBC-1 (lung, squamous cell carcinoma) cell viability (% of control)” value ([7]; 3.7 nM) was 98.8 ± 5.8 % of control, the “EBC-1 (lung, squamous cell carcinoma) cell viability (% of control)” value ([7]; 11.1 nM) was 110.1 ± 11.9 % of control and the “EBC-1 (lung, squamous cell carcinoma) cell viability (% of control)” value ([7]; 100 nM) was 43.4 ± 6.8 % of control. For the same compound, the “EBC-1 (lung, squamous cell carcinoma) cell viability (% of control)” value ([7]; 300 nM) was 24.2 ± 2.1 % of control, the “FaDu (pharynx, squamous cell carcinoma) cell viability (% of control)” value (“FaDu … (% of control)” below) ([8]; 3.7 nM) was 102.4 ± 7.4 % of control and the “FaDu … (% of control)” value ([8]; 11.1 nM) was 98.8 ± 4.7 % of control. For the same compound, the “FaDu … (% of control)” value ([8]; 100 nM) was 46.9 ± 5.6 % of control, the “FaDu … (% of control)” value ([8]; 300 nM) was 25.6 ± 5.3 % of control and the LNCaP cell viability ([9]; 3.7 nM) was 98.6 ± 5.7 % of control. For the same compound, the LNCaP cell viability ([9]; 11.1 nM) was 101.4 ± 3.3 % of control, the LNCaP cell viability ([9]; 100 nM) was 28.1 ± 1.7 % of control and the LNCaP cell viability ([9]; 300 nM) was 15.2 ± 1.7 % of control. The “MDA-MB-231 (breast, adenocarcinoma) cell viability (% of control)” value ([10]; 3.7 nM) was 101.0 ± 4.4 % of control, the “MDA-MB-231 (breast, adenocarcinoma) cell viability (% of control)” value ([10]; 11.1 nM) was 97.9 ± 1.1 % of control and the “MDA-MB-231 (breast, adenocarcinoma) cell viability (% of control)” value ([10]; 100 nM) was 87.9 ± 4.4 % of control. The “MDA-MB-231 (breast, adenocarcinoma) cell viability (% of control)” value ([10]; 300 nM) was 56.8 ± 2.1 % of control, the “MDA-MB-453 (breast, carcinoma) cell viability (% of control)” value ([11]; 3.7 nM) was 111.0 ± 7.3 % of control and the “MDA-MB-453 (breast, carcinoma) cell viability (% of control)” value ([11]; 11.1 nM) was 110.8 ± 2.3 % of control. The “MDA-MB-453 (breast, carcinoma) cell viability (% of control)” value ([11]; 100 nM) was 37.9 ± 1.3 % of control, the “MDA-MB-453 (breast, carcinoma) cell viability (% of control)” value ([11]; 300 nM) was 32.5 ± 0.5 % of control and the “MIA PaCa-2 (pancreas, carcinoma) cell viability (% of control)” value ([12]; 3.7 nM) was 105.7 ± 8.5 % of control. For the same compound, the “MIA PaCa-2 (pancreas, carcinoma) cell viability (% of control)” value ([12]; 11.1 nM) was 108.5 ± 11.2 % of control, the “MIA PaCa-2 (pancreas, carcinoma) cell viability (% of control)” value ([12]; 100 nM) was 43.4 ± 13.5 % of control and the “MIA PaCa-2 (pancreas, carcinoma) cell viability (% of control)” value ([12]; 300 nM) was 17.3 ± 8.8 % of control. The “PC-3 (prostate, adenocarcinoma) cell viability (% of control)” value ([13]; 3.7 nM) was 106.0 ± 2.8 % of control, the “PC-3 (prostate, adenocarcinoma) cell viability (% of control)” value ([13]; 11.1 nM) was 102.4 ± 3.7 % of control and the “PC-3 (prostate, adenocarcinoma) cell viability (% of control)” value ([13]; 100 nM) was 60.4 ± 5.2 % of control. The “PC-3 (prostate, adenocarcinoma) cell viability (% of control)” value ([13]; 300 nM) was 33.3 ± 3.3 % of control, the “Panc-1 (pancreas, carcinoma) cell viability (% of control)” value ([14]; 3.7 nM) was 105.8 ± 0.5 % of control and the “Panc-1 (pancreas, carcinoma) cell viability (% of control)” value ([14]; 11.1 nM) was 104.6 ± 7.2 % of control. The “Panc-1 (pancreas, carcinoma) cell viability (% of control)” value ([14]; 100 nM) was 81.8 ± 8.1 % of control, the “Panc-1 (pancreas, carcinoma) cell viability (% of control)” value ([14]; 300 nM) was 56.9 ± 2.4 % of control and the “SCC-25 (tongue, squamous cell carcinoma) cell viability (% of control)” value ([15]; 3.7 nM) was 108.5 ± 8.6 % of control. For the same compound, the “SCC-25 (tongue, squamous cell carcinoma) cell viability (% of control)” value ([15]; 11.1 nM) was 105.5 ± 12.7 % of control, the “SCC-25 (tongue, squamous cell carcinoma) cell viability (% of control)” value ([15]; 100 nM) was 76.7 ± 19.9 % of control and the “SCC-25 (tongue, squamous cell carcinoma) cell viability (% of control)” value ([15]; 300 nM) was 37.6 ± 4.3 % of control.
